Measured values: patent US9428519B2, “Acylated derivative of homoharringtonine, preparation method therefor, and application thereof” (HANGZHOU BENSHENG PHARMACEUTICAL CO., LTD., priority 2011, dated 2016)
Converted amounts (≈) assume the structure as drawn.

Tests used:
[1] = tested on: Becap37 (human breast cancer cell); test: MTT growth inhibition of human solid tumor cells, 72 h; type: cell-based
Description: (§1) Human solid tumor cell lines: Hep-2 (laryngeal carcinoma), A549 (human lung cancer), CaES-17 (esophageal cancer cell), PC-3 (prostate cancer), CNE (nasopharyngeal carcinoma cell), and SK-OV-3 (ovarian cancer cell), all of which are purchased from China Center For Type Culture Collection; RKO (human colon adenocarcinoma cell), MGC 803 (human gastric cancer cell), MG63 (osteosarcoma) and U87 MG (malignant glioma cell), all of which are purchased from Fuxiang Bio-tech Co. Ltd., Shanghai, China; PANC-1 (pancreatic cancer), Huh7 (human liver cancer cell), Becap37 (human breast cancer cell), and Hela (human cervical cancer cell), all of which are donated by Cancer Research Institute of Zhejiang University, China.
(§2) Obtaining 4000 well-growing human solid tumor cells and inoculating them into wells of a 96-well cell culture plate. The culture medium is DMEM High Glucose cell culture medium containing 10% fetal bovine serum. The plate is placed in a carbon dioxide cell incubator (5% CO2) at 37° C. and incubated for 24 hours. After adding the homoharringtonine derivatives of different concentration and mixing uniformly, the plate is placed in a carbon dioxide cell incubator (5% CO2) at 37° C. and incubated for 72 hours. Then the viable cell concentration is determined by the MTT method and the cell viability (%) after drug treatment is calculated. In this experiment, the cell viability of control group (not treated with any compound) is set as 100%.

[2] = tested on: Huh7 (human liver cancer cell); test: as above; type: cell-based
Description: as §1, §2

[3] = tested on: CaES-17 (esophageal cancer cell); test: as above; type: cell-based
Description: as §1, §2

[4] = tested on: PC-3 (prostate cancer); test: as above; type: cell-based; conditions: MTT
Description: as §1, §2

[5] = tested on: PANC-1 (pancreatic cancer); test: as above; type: cell-based
Description: as §1, §2

[6] = tested on: MGC 803 (human gastric cancer cell); test: as above; type: cell-based
Description: as §1, §2

[7] = tested on: MG63 (osteosarcoma); test: as above; type: cell-based
Description: as §1, §2

[8] = tested on: Hela (human cervical cancer cell); test: as above; type: cell-based; conditions: MTT
Description: as §1, §2

[9] = tested on: SK-OV-3 (ovarian cancer cell); test: as above; type: cell-based
Description: as §1, §2

[10] = tested on: CNE (nasopharyngeal carcinoma cell); test: as above; type: cell-based; conditions: MTT
Description: as §1, §2

[11] = tested on: U87 MG (malignant glioma cell); test: as above; type: cell-based
Description: as §1, §2

[12] = tested on: RKO (human colon adenocarcinoma cell); test: as above; type: cell-based
Description: as §1, §2

[13] = tested on: A549 (human lung cancer); test: as above; type: cell-based
Description: as §1, §2

[14] = tested on: Hep-2 (laryngeal carcinoma); test: as above; type: cell-based
Description: as §1, §2

[15] = tested on: RPMI8226 (multiple myeloma); test: MTT growth inhibition of multiple myeloma cells, 72 h; type: cell-based, human
Description: Multiple myeloma and lymphoma cell lines: RPMI8226 (multiple myeloma), purchased from Fuxiang Bio-tech Co. Ltd., Shanghai, China.
(§3) Obtaining 6000 well-growing leukemia cells and inoculating them into wells of a 96-well cell culture plate. The culture medium is the 1640 cell culture medium containing 10% fetal bovine serum. After adding the homoharringtonine derivatives of different concentrations and mixing uniformly, placing the plate in a carbon dioxide cell incubator (5% CO2) at 37° C. and incubated for 72 hours. Then the viable cell concentration is determined by the MTT method. In this experiment, the cell viability in control group (not treated with any compound) is set as 100%. On such basis, the cell viability (%) after treatment and the 50% inhibiting concentration of the compound for the leukemia cell growth at 72 hours (IC50 value of 72 hours) are calculated.

[16] = tested on: H9 (acute lymphoblastic leukemia, ALL); test: MTT growth inhibition of leukemia cells, 72 h; type: cell-based, human; conditions: MTT
Source text: (§4) Leukemia cell lines: leukemia cell lines: K562/adr (drug-resistant, chronic myeloid leukemia, CML), NB4 (acute promyelocytic leukemia, AML), Kasumi-1 (acute myeloid leukemia M2 type, AML-M2), Jurkat (acute lymphoblastic leukemia, ALL), all of which are donated by Cancer Research Institute of Zhejiang University, China; and H9 (acute lymphoblastic leukemia, ALL), which is purchased from China Center for Type Culture Collection (CCTCC).
(§5) Reagents: The standard sample of homoharringtonine (HHT) is purchased from Taihua Natural Plant Pharmaceutical Co., Ltd., Shaanxi, China, the homoharringtonine derivatives of the present invention.
as §3

[17] = tested on: K562/adr (drug-resistant, chronic myeloid leukemia, CML); test: MTT growth inhibition of leukemia cells, 72 h; type: cell-based, human; conditions: MTT
Source text: as §4, §5, §3

[18] = tested on: Kasumi-1 (acute myeloid leukemia M2 type, AML-M2); test: MTT growth inhibition of leukemia cells, 72 h; type: cell-based, human
Source text: as §4, §5, §3

[19] = tested on: Jurkat (acute lymphoblastic leukemia, ALL); test: MTT growth inhibition of leukemia cells, 72 h; type: cell-based, human
Source text: as §4, §5, §3

[20] = tested on: NB4 (acute promyelocytic leukemia, AML); test: MTT growth inhibition of leukemia cells, 72 h; type: cell-based, human; conditions: MTT
Source text: as §4, §5, §3

COC(=O)C[C@](O)(CCCC(C)(C)OC(=O)c1ccco1)C(=O)O[C@@H]1C(OC)=C[C@]23CCCN2CCc2cc4c(cc2[C@H]13)OCO4 [BS-HH-059]
IC50 ([1]; Homo sapiens): 0.007 µg/mL (≈ 0.0109 µM)
IC90 ([1]; Homo sapiens): 7.4 µg/mL (≈ 11.6 µM)
IC50 ([2]; Homo sapiens, Huh-7): 0.012 µg/mL (≈ 0.0188 µM)
IC90 ([2]; Homo sapiens, Huh-7): 0.081 µg/mL (≈ 0.127 µM)
IC50 ([3]; Homo sapiens, CaEs17): 0.029 µg/mL (≈ 0.0453 µM)
IC90 ([3]; Homo sapiens, CaEs17): 16 µg/mL (≈ 25 µM)
IC50 ([4]; Homo sapiens): 0.08 µg/mL (≈ 0.125 µM)
IC90 ([4]; Homo sapiens): > 16 µg/mL
IC50 ([5]; Homo sapiens, PANC-1, MTT): 0.029 µg/mL (≈ 0.0453 µM)
IC90 ([5]; Homo sapiens, PANC-1, MTT): > 16 µg/mL
IC50 ([6]; Homo sapiens, MGC-803): 0.021 µg/mL (≈ 0.0328 µM)
IC90 ([6]; Homo sapiens, MGC-803): 0.11 µg/mL (≈ 0.172 µM)
IC50 ([7]; Homo sapiens, MG-63, MTT): 0.02 µg/mL (≈ 0.0313 µM)
IC90 ([7]; Homo sapiens, MG-63, MTT): 3.08 µg/mL (≈ 4.81 µM)
anti-MG63 effect relative to homoharringtonine ([7]; vs HHT): substantially superior
IC50 ([8]; Homo sapiens, HeLa): 0.014 µg/mL (≈ 0.0219 µM)
IC90 ([8]; Homo sapiens, HeLa): 16 µg/mL (≈ 25 µM)
IC50 ([9]; Homo sapiens, SK-OV-3, MTT): 0.08 µg/mL (≈ 0.125 µM)
IC90 ([9]; Homo sapiens, SK-OV-3, MTT): > 16 µg/mL
IC50 ([10]; Homo sapiens): 0.031 µg/mL (≈ 0.0485 µM)
IC90 ([10]; Homo sapiens): > 16 µg/mL
IC50 ([11]; Homo sapiens, U-87 MG): 0.023 µg/mL (≈ 0.036 µM)
IC90 ([11]; Homo sapiens, U-87 MG): 0.18 µg/mL (≈ 0.281 µM)
IC50 ([12]; Homo sapiens, MTT): 0.001 µg/mL (≈ 0.00156 µM)
IC90 ([12]; Homo sapiens, MTT): 0.015 µg/mL (≈ 0.0234 µM)
anti-RKO effect relative to homoharringtonine ([12]; vs HHT): substantially superior
IC50 ([13]; Homo sapiens, A549): 0.03 µg/mL (≈ 0.0469 µM)
IC90 ([13]; Homo sapiens, A549): > 16 µg/mL
IC50 ([14]; Homo sapiens, HEp-2): 0.015 µg/mL (≈ 0.0234 µM)
IC90 ([14]; Homo sapiens, HEp-2): > 16 µg/mL
IC50 ([15]; Homo sapiens, RPMI-8226, MTT): 0.006 µg/mL (≈ 0.00938 µM)
IC90 ([15]; Homo sapiens, RPMI-8226, MTT): 0.039 µg/mL (≈ 0.061 µM)
IC50 ([16]; Homo sapiens): 0.007 µg/mL (≈ 0.0109 µM)
IC90 ([16]; Homo sapiens): 0.02 µg/mL (≈ 0.0313 µM)
IC50 ([17]; Homo sapiens, K562/Adr): 0.03 µg/mL (≈ 0.0469 µM)
IC90 ([17]; Homo sapiens, K562/Adr): 0.35 µg/mL (≈ 0.547 µM)
IC50 ([18]; Homo sapiens, Kasumi 1, MTT): 0.005 µg/mL (≈ 0.00782 µM)
IC90 ([18]; Homo sapiens, Kasumi 1, MTT): 0.012 µg/mL (≈ 0.0188 µM)
IC50 ([19]; Homo sapiens, Jurkat): 0.003 µg/mL (≈ 0.00469 µM)
IC90 ([19]; Homo sapiens, Jurkat): ≥ 16 µg/mL
IC50 ([20]; Homo sapiens): 0.006 µg/mL (≈ 0.00938 µM)
IC90 ([20]; Homo sapiens): 0.012 µg/mL (≈ 0.0188 µM)

COC(=O)C[C@@](CCCC(C)(C)OC(=O)c1ccccc1)(OC(=O)c1ccccc1)C(=O)O[C@@H]1C(OC)=C[C@]23CCCN2CCc2cc4c(cc2[C@H]13)OCO4 [BS-HH-0732]
IC50 Becap37 [1]: 2.9 µg/mL (≈ 3.85 µM)
IC90 Becap37 [1]: 12.7 µg/mL (≈ 16.8 µM)
IC50 Huh7 [2]: 4.8 µg/mL (≈ 6.37 µM)
IC90 Huh7 [2]: 14.5 µg/mL (≈ 19.2 µM)
IC50 CaES-17 [3]: 3.93 µg/mL (≈ 5.21 µM)
IC90 CaES-17 [3]: 16 µg/mL (≈ 21.2 µM)
IC50 PC-3 [4]: 3.97 µg/mL (≈ 5.27 µM)
IC90 PC-3 [4]: 16 µg/mL (≈ 21.2 µM)
IC50 PANC-1 ([5]; MTT): 5.8 µg/mL (≈ 7.69 µM)
IC90 PANC-1 ([5]; MTT): 16 µg/mL (≈ 21.2 µM)
IC50 MGC 803 [6]: 2.7 µg/mL (≈ 3.58 µM)
IC90 MGC 803 [6]: 9.92 µg/mL (≈ 13.2 µM)
IC50 MG 63 ([7]; MTT): 1.34 µg/mL (≈ 1.78 µM)
IC90 MG 63 ([7]; MTT): 9.88 µg/mL (≈ 13.1 µM)
IC50 Hela [8]: 2.61 µg/mL (≈ 3.46 µM)
IC90 Hela [8]: 8.37 µg/mL (≈ 11.1 µM)
IC50 SK-OV-3 ([9]; MTT): 6.71 µg/mL (≈ 8.9 µM)
IC90 SK-OV-3 ([9]; MTT): >16 µg/mL
IC50 CNE [10]: 3.91 µg/mL (≈ 5.19 µM)
IC90 CNE [10]: >16 µg/mL
IC50 U87 MG [11]: 2 µg/mL (≈ 2.65 µM)
IC90 U87 MG [11]: 8.54 µg/mL (≈ 11.3 µM)
IC50 RKO ([12]; MTT): 1.4 µg/mL (≈ 1.86 µM)
IC90 RKO ([12]; MTT): 5.24 µg/mL (≈ 6.95 µM)
IC50 A549 [13]: 5.4 µg/mL (≈ 7.16 µM)
IC90 A549 [13]: >16 µg/mL
IC50 Hep-2 [14]: 3.46 µg/mL (≈ 4.59 µM)
IC90 Hep-2 [14]: >16 µg/mL
IC50 RPMI8226 ([15]; MTT): 1.15 µg/mL (≈ 1.53 µM)
IC90 RPMI8226 ([15]; MTT): 3.84 µg/mL (≈ 5.09 µM)
IC50 H9 [16]: 1.3 µg/mL (≈ 1.72 µM)
IC90 H9 [16]: 3.9 µg/mL (≈ 5.17 µM)
IC50 K562/adr [17]: 2.5 µg/mL (≈ 3.32 µM)
IC90 K562/adr [17]: 6.5 µg/mL (≈ 8.62 µM)
IC50 Kasumi-1 ([18]; MTT): 1.35 µg/mL (≈ 1.79 µM)
IC90 Kasumi-1 ([18]; MTT): 3.56 µg/mL (≈ 4.72 µM)
IC50 Jurkat [19]: 1.4 µg/mL (≈ 1.86 µM)
IC90 Jurkat [19]: 6.4 µg/mL (≈ 8.49 µM)
IC50 NB4 [20]: 1.19 µg/mL (≈ 1.58 µM)
IC90 NB4 [20]: 2.47 µg/mL (≈ 3.28 µM)
